Read-outs that look alike come from different tables or passages of the source.
How the values were obtained:
[1] = target: T1, soluble guanylate cyclase (sGC) (Homo sapiens, UniProt Q02108+Q02153); assay: In vitro detection experiment for soluble guanylate cyclase (sGC) activity (TR-FRET);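 also: enzyme reaction started with GTP and run for 60 min at 37°C, followed by a 60 min detection step at room temperature, with EC50 obtained by nonlinear curve fitting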
T1 sequence (Q02108 1-690): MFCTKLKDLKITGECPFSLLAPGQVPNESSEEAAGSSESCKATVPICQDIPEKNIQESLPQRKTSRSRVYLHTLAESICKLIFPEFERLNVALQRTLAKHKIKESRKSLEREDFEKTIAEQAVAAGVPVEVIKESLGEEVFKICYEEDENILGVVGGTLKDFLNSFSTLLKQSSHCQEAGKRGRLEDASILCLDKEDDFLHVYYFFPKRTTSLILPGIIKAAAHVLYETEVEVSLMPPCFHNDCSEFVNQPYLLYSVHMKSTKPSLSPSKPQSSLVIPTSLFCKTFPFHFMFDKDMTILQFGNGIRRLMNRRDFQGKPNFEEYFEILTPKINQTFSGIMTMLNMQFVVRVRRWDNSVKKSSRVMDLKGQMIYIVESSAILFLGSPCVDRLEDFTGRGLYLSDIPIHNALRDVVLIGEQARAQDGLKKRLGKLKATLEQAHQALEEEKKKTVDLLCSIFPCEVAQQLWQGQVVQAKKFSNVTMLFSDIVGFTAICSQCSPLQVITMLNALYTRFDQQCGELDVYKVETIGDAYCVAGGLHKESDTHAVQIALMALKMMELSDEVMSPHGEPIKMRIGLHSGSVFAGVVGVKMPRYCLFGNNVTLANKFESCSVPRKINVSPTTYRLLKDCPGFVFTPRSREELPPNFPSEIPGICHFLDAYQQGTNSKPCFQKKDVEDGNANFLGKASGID
T1 sequence (Q02153 1-619): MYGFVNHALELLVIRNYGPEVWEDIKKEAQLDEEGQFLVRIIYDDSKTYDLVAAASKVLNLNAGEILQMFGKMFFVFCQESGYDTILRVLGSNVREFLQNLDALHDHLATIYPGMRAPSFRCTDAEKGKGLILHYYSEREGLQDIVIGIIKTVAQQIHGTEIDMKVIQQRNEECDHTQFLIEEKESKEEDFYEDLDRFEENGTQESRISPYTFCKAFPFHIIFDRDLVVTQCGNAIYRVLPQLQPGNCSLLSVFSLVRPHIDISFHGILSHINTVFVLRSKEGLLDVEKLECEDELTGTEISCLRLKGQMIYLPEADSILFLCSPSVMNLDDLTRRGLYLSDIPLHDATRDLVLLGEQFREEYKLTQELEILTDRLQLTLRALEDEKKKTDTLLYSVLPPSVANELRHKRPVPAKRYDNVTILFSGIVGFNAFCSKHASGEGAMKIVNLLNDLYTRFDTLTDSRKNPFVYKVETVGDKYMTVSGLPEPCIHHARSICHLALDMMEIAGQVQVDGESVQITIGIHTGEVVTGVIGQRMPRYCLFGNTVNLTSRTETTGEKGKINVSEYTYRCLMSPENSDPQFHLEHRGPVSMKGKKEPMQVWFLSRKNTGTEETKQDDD
Description: First, 100 nL of the compounds at different concentrations were transferred to a 384-well reaction plate (Greiner, Cat. No. 784075) using Echo 655 (LABCYTE, Cat # 655), with the final DMSO concentration of 1% in the reaction mixture; 2 µL of sGC (ICE, Cat. No. S2304F-H07SH2) was added to a 384-well reaction plate, and the mixture was centrifuged at 1000 rpm for 1 min; and then 1 µL of DETA NONOate was added, and the mixture was incubated at 37°C for10 min. After the incubation was completed, 2 µL of GTP was added, and the mixture was centrifuged at 1000 rpm for 1 min and reacted at 37°C for 60 min. In the reaction system, the final concentrations of sGC, GTP, and DETA NONOate were 1.5 nM, 5 µM, and 100 µM, respectively. After the reaction was completed, 5 µL of the test mixture (PerkinElmer, Cat. No. 62GM2PEG) was added and incubated at room temperature for 60 min. The TR-FRET signal (Ratio: 665/620 nm) was read using a microplate reader (BMG, Cat. No. PHERAstar FSX). A nonlinear regression curve was fitted using GraphPad Prism software, and EC50 values were calculated. Compound A (Example 1 in WO 2010065275) was used as a positive reference compound.

[2] = Pharmacokinetic test in rats (inhalation administration); conditions: SD rats, single inhalation dose 0.03 mg/kg; for Lung AUC0-t / Lung Cmax: lung tissue
Description: Experimental objective: In this experiment, the test compound was administered as a single dose via inhalation to SD rats, and the concentrations of the test compound in rat plasma and lungs were determined to evaluate the pharmacokinetic characteristics and bioavailability of the test compound in the rats.
Experimental animals: Male SD rats, 180-200 g, purchased from Chengdu Dossy Experimental Animals Co., Ltd.
Experimental method: On the day of the experiment, SD rats were randomly assigned into 6 groups according to body weight (for each compound), with 2 rats in each group. The rats were fasted with water available for 12 to 16 hours one day before the administration, and were fed 4 hours after the administration.
Plasma sampling: before and after the administration, blood was taken from the orbits of the rats under isoflurane anaesthesia, and placed in an EDTAK2 centrifuge tube. Centrifugation was performed at 6000 rpm at 4°C for 10 min, and the plasma was collected.
Lung tissue sampling: Animals from each group were euthanised by CO2 inhalation at 0.25, 0.5, 1, 4, 7 and 24 hours after the administration. Then, the animal was dissected to collect lung tissue, which was rinsed with physiological saline, dried with filter paper, weighed in the balance, kept on wet ice and homogenised within 2 hours using a 6-fold volume (i.e., 6 mL per 1 g of tissue) of homogenisation buffer (50% methanol-water).
Before analysis and detection, all samples were stored at -60°C. The samples were analysed quantitatively by LC-MS/MS.

[3] = enzymatic agonism and/or activation of sGC, 1.5 nM sGC, 5 µM GTP, 100 µM DETA NONOate

SMILES | EC50 [1] [nM] | other results
CC(C)(Cc1coc(C2(C)C(=O)Nc3nc(-n4c(=O)n(CCC(F)(F)C(F)(F)F)c5cc(F)ccc54)nc(N)c32)n1)C(=O)O (centres unmarked) [Compound 11] | < 20 | 
CC(C)(Cc1cccc(C2(C)C(=O)Nc3nc(-n4c(=O)n(CCC(F)(F)C(F)(F)F)c5cc(Cl)ccc54)nc(N)c32)c1)C(=O)O (single isomer, unassigned) [Compound 1-2] | < 20 | 
CC(C)(Cc1csc(C2(C)C(=O)Nc3nc(-n4nc(CCC(F)(F)C(F)(F)F)c5ncc(F)cc54)nc(N)c32)n1)C(=O)O (single isomer, unassigned) [Compound 37-1] |  | Lung AUC0-t [2]: 3281 ng·h/mL; Lung Cmax [2]: 1729 ng/mL
CC(C)(Cc1csc(C2(C)C(=O)Nc3nc(-c4nn(CCC(F)(F)C(F)(F)F)c5cc(Cl)cnc45)nc(N)c32)n1)C(=O)O (centres unmarked) [Compound 20] | < 20 | 
CC(C)(Cc1csc([C@]2(C)C(=O)Nc3nc(-c4nc(Cc5ccccc5F)n5ncccc45)nc(N)c32)n1)C(=O)O [Compound 19-1] |  | Lung AUC0-t/plasma AUC0-t [2]: 245; Lung AUC0-t [2]: 12248 ng·h/mL; Lung Cmax [2]: 2842 ng/mL
CC(C)(Cc1csc(C2(C)C(=O)Nc3nc(-n4nc(CCC(F)(F)C(F)(F)F)c5ncccc54)nc(N)c32)n1)C(=O)O (centres unmarked) [Compound 29] | < 20 | 
CC(C)(Cc1csc(C2(C)C(=O)Nc3nc(-n4c(=O)n(CCC(F)(F)C(F)(F)F)c5ncc(F)cc54)nc(N)c32)n1)C(=O)O (racemic) [Compound 12] | < 20 | 
CC(C)(Cc1csc(C2(C)C(=O)Nc3nc(-c4nc(CCC(F)(F)C(F)(F)F)n5ncccc45)nc(N)c32)n1)C(=O)O (racemic) [Compound 3] | < 20 | 
CC(C)(Cc1csc(C2(C)C(=O)Nc3nc(-n4c(=O)n(CCC(F)(F)C(F)(F)F)c5cc(F)ccc54)nc(N)c32)n1)C(=O)O (centres unmarked) [Compound 31] |  | EC50 [1, 3]: < 20 nM
CC(C)(Cc1coc(C2(C)C(=O)Nc3nc(-n4c(=O)n(CCC(F)(F)C(F)(F)F)c5cc(Cl)ccc54)nc(N)c32)n1)C(=O)O (centres unmarked) [Compound 8] |  | EC50 [1, 3]: < 20 nM
CC(C)(Cc1csc(C2(C)C(=O)Nc3nc(-n4c(=O)n(CC5CCCCC5)c5ncc(F)cc54)nc(N)c32)n1)C(=O)O (centres unmarked) [Compound 13] | < 20 | 
CC(C)(Cc1coc(C2(C)C(=O)Nc3nc(-n4c(=O)n(CCC(F)(F)C(F)(F)F)c5c(F)cccc54)nc(N)c32)n1)C(=O)O (centres unmarked) [Compound 16] | < 20 | 
CC(C)(Cc1csc(C2(C)C(=O)Nc3nc(-n4nc(Cc5cccc(F)c5F)c5ncc(F)cc54)nc(N)c32)n1)C(=O)O (single isomer, unassigned) [Compound 36-1] |  | Lung AUC0-t/plasma AUC0-t [2]: 49.1; Lung AUC0-t [2]: 10133 ng·h/mL; Lung Cmax [2]: 4067 ng/mL
CC(C)(Cc1csc(C2(C)C(=O)Nc3nc(-c4nc(Cc5ccccc5F)n5ncccc45)nc(N)c32)n1)C(=O)O (racemic) [Compound 19] | < 20 | 
CC(C)(Cc1cccc(C2(C)C(=O)Nc3nc(-n4c(=O)n(CCC(F)(F)C(F)(F)F)c5ncccc54)nc(N)c32)c1)C(=O)O (racemic) [Compound 9] | < 20 | 
CC(C)(Cc1csc([C@]2(C)C(=O)Nc3nc(-c4nc(CCC(F)(F)C(F)(F)F)n5ncccc45)nc(N)c32)n1)C(=O)O [Compound 3-1] |  | Lung AUC0-t/plasma AUC0-t [2]: 65; Lung AUC0-t [2]: 3626 ng·h/mL; Lung Cmax [2]: 2979 ng/mL
CC(C)(Cc1coc(C2(C)C(=O)Nc3nc(-n4nc(CCC(F)(F)C(F)(F)F)c5cc(F)ccc54)nc(N)c32)n1)C(=O)O (centres unmarked) [Trifluoroacetate of compound 33] |  | EC50 [1, 3]: < 20 nM
CC(C)(Cc1csc(C2(C)C(=O)Nc3nc(-n4c(=O)n(Cc5ccccc5F)c5c(F)cccc54)nc(N)c32)n1)C(=O)O (centres unmarked) [Trifluoroacetate of compound 15] |  | EC50 [1, 3]: < 20 nM
CC(C)(Cc1cccc([C@@]2(C)C(=O)Nc3nc(-c4nn(CCC(F)(F)C(F)(F)F)c5cc(Cl)cnc45)nc(N)c32)c1)C(=O)O [Compound 6-1] |  | Lung AUC0-t/plasma AUC0-t [2]: 659; Lung AUC0-t [2]: 5173 ng·h/mL; Lung Cmax [2]: 2825 ng/mL
CC(C)(Cc1csc(C2(C)C(=O)Nc3nc(-n4nc(CCC(F)(F)C(F)(F)F)c5cc(Cl)ccc54)nc(N)c32)n1)C(=O)O (racemic) [Trifluoroacetate of compound 4] | < 20 | 
CC(C)(Cc1csc(C2(C)C(=O)Nc3nc(-n4nc(CCC(F)(F)C(F)(F)F)c5cc(F)ccc54)nc(N)c32)n1)C(=O)O (racemic) [Compound 17] | < 20 | 
CC(C)(Cc1csc(C2(C)C(=O)Nc3nc(-n4nc(Cc5ccccc5F)c5cc(Cl)ccc54)nc(N)c32)n1)C(=O)O (centres unmarked) [Trifluoroacetate of compound 32] |  | EC50 [1, 3]: < 20 nM
CC(C)(Cc1csc(C2(C)C(=O)Nc3nc(-c4nn(Cc5cccc(F)c5F)c5cccnc45)nc(N)c32)n1)C(=O)O (centres unmarked) [Compound 24] | < 20 | 
CC(C)(Cc1coc(C2(C)C(=O)Nc3nc(-c4nn(CCC(F)(F)C(F)(F)F)c5cc(Cl)cnc45)nc(N)c32)n1)C(=O)O (centres unmarked) [Compound 21] | < 20 | 
CC(C)(Cc1cccc(C2(C)C(=O)Nc3nc(-c4nc(CCC(F)(F)C(F)(F)F)n5ncccc45)nc(N)c32)c1)C(=O)O (centres unmarked) [Compound 18] | < 20 | 

Continued, in another order:

EC50 [1] [nM] | SMILES | other results
< 20 | CC(C)(Cc1coc(C2(C)C(=O)Nc3nc(-n4nc(Cc5ccccc5F)c5c(F)cccc54)nc(N)c32)n1)C(=O)O (centres unmarked) [Compound 40] | 
< 20 | CC(C)(Cc1csc(C2(C)C(=O)Nc3nc(-n4c(=O)n(Cc5cccc(F)c5F)c5ncc(F)cc54)nc(N)c32)n1)C(=O)O (centres unmarked) [Trifluoroacetate of compound 28] | 
< 20 | CC(C)(Cc1csc(C2(C)C(=O)Nc3nc(-c4nc(CCC(F)(F)C(F)(F)F)n5cc(F)ccc45)nc(N)c32)n1)C(=O)O (racemic) [Compound 45] | 
< 20 | CC(C)(Cc1csc(C2(C)C(=O)Nc3nc(-n4nc(CCC(F)(F)C(F)(F)F)c5ncc(F)cc54)nc(N)c32)n1)C(=O)O (racemic) [Compound 37] | 
< 20 | CC(C)(Cc1csc(C2(C)C(=O)Nc3nc(-n4nc(Cc5ccccc5F)c5c(F)cccc54)nc(N)c32)n1)C(=O)O (racemic) [Compound 41] | 
< 20 | CC(C)(Cc1csc(C2(C)C(=O)Nc3nc(-n4nc(Cc5cccc(F)c5F)c5ncc(F)cc54)nc(N)c32)n1)C(=O)O (racemic) [Compound 36] | 
< 20 | CC(C)(Cc1csc(C2(C)C(=O)Nc3nc(-n4c(=O)n(CCC(F)(F)C(F)(F)F)c5ncccc54)nc(N)c32)n1)C(=O)O (centres unmarked) [Trifluoroacetate of compound 10] | 
< 20 | CC(C)(Cc1cccc(C2(C)C(=O)Nc3nc(-n4nc(CCC(F)(F)C(F)(F)F)c5ncccc54)nc(N)c32)c1)C(=O)O (centres unmarked) [Trifluoroacetate of compound 5] | 
< 20 | CC(C)(Cc1coc(C2(C)C(=O)Nc3nc(-c4nc(CCC(F)(F)C(F)(F)F)n5cc(F)ccc45)nc(N)c32)n1)C(=O)O (centres unmarked) [Compound 46] | 
< 20 | CC(C)(Cc1coc(C2(C)C(=O)Nc3nc(-n4nc(Cc5cccc(F)c5F)c5c(F)cccc54)nc(N)c32)n1)C(=O)O (centres unmarked) [Compound 42] | 
< 20 | CC(C)(Cc1csc(C2(C)C(=O)Nc3nc(-n4nc(CC5CCCCC5)c5ncc(F)cc54)nc(N)c32)n1)C(=O)O (centres unmarked) [Compound 44] | 
< 20 | CC(C)(Cc1csc(C2(C)C(=O)Nc3nc(-n4c(=O)n(CCC(F)(F)C(F)(F)F)c5c(F)cccc54)nc(N)c32)n1)C(=O)O (racemic) [Trifluoroacetate of compound 14] | 
< 20 | CC(C)(Cc1csc(C2(C)C(=O)Nc3nc(-c4nn(Cc5ccccc5F)c5cccnc45)nc(N)c32)n1)C(=O)O (centres unmarked) [Trifluoroacetate of compound 23] | 
< 20 | CC(C)(Cc1csc(C2(C)C(=O)Nc3nc(-n4c(=O)n(Cc5ccccc5F)c5cc(F)ccc54)nc(N)c32)n1)C(=O)O (racemic) [Trifluoroacetate of compound 38] | 
< 20 | CC(C)(Cc1coc(C2(C)C(=O)Nc3nc(-n4nc(Cc5ccccc5F)c5cc(Cl)ccc54)nc(N)c32)n1)C(=O)O (centres unmarked) [Trifluoroacetate of compound 34] | 
< 20 | CC(C)(Cc1csc(C2(C)C(=O)Nc3nc(-n4nc(Cc5ccccc5F)c5ncc(F)cc54)nc(N)c32)n1)C(=O)O (racemic) [Compound 35] | 

Source: patent EP4725948A1, “PYRROLO[2,3-D]PYRIMIDIN-4-AMINE DERIVATIVE AND USE THEREOF IN MEDICINE” (Haisco Pharmaceutical Group Co., Ltd., priority 2023, dated 2024)
